Measured values published in patent US5945440A, “Indolocarbazole imides and the use thereof” (priority 1992, dated 1999).
pIC50: −log10 of the molar value.

Experiments:
protein kinase C = assay: inhibition of protein kinase C, enzyme test; format: biochemical; details: read-out: inhibition of the protein kinases, C-kinase IC50
Procedure: In order to ascertain whether it is a question of a selective inhibition of MLC kinase, the compounds were also investigated in other enzyme tests for protein kinase, including tests for protein kinase C. The results from the PKC test are also given in the following Table I. Furthermore, the Table contains selectivity factors which were calculated by the determination of the ratios of the IC50 values.

[1] = target: T1, MLC kinase (myosin light-chain kinase) (Gallus gallus, UniProt P11799); assay: inhibition of MLC kinase, in vitro enzyme test (32P phosphate incorporation); format: biochemical, chicken (stomach); details: for pIC50: 1 nM MLC kinase, 250 μM ATP, pH 7.2, 20 minutes at 30° C., read-out: inhibition of the protein kinases, MLC-kinase IC50; for ratio of IC50 C-kinase/IC50 MLC-kinase: selectivity factor calculated from the IC50 values; for MLC kinase inhibition, in words: potency and selectivity vs protein kinase C
T1 construct: MLC kinase was purified from chicken stomach; from tissue; host or cells: chicken stomach (gizzard smooth muscle)
T1 sequence (P11799 935-1906): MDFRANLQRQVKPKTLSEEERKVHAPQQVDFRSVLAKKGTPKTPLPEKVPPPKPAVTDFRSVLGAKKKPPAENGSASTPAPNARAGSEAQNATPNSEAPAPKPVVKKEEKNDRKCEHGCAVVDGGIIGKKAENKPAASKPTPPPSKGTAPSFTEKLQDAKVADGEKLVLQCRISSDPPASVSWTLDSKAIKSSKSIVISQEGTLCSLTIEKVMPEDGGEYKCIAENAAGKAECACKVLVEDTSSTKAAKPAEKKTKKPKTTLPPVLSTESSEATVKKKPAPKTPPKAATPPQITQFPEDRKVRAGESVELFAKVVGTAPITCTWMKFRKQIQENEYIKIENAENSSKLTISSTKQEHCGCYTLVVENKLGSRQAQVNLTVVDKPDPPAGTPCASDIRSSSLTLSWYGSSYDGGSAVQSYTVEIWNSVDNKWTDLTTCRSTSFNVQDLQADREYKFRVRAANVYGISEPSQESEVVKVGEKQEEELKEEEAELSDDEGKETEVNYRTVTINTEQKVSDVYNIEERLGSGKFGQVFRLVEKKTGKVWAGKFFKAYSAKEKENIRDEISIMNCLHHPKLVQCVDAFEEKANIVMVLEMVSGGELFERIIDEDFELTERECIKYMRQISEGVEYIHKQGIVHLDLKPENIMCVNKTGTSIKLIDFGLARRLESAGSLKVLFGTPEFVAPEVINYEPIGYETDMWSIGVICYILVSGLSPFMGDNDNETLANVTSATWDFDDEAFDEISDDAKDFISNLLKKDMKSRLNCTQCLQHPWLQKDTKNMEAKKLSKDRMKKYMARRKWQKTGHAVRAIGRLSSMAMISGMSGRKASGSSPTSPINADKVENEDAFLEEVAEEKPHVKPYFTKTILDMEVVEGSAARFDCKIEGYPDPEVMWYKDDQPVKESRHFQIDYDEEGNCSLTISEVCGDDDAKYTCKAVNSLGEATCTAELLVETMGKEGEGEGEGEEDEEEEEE
Procedure: Inhibition of the enzyme MLC kinase (EC 3.6.1.3; kinase of the light myosin chain; myosin light-chain kinase).
The inhibition of MLC kinase was measured in an in vitro enzyme test.
The reaction was initiated by the addition of 1 nM MLC kinase. After incubation for 20 minutes at 30° C., the reaction was stopped with TCA and the samples then filtered off. The phosphate incorporation took place by means of Cerenkov counting of the filter.

Row | Compound | pIC50 (protein kinase C) | pIC50 [1] | ratio of IC50 C-kinase/IC50 MLC-kinase [1] | MLC kinase inhibition, in words [1]
1 | O=C1NC(=O)c2c1c1c3cc(O)ccc3[nH]c1c1[nH]c3ccc(O)cc3c21 [Example 2e, 6,7,12,13-tetrahydro-3,9-dihydroxy-5,1-dioxo-5H-indolo[2,3-a]pyrrolo[3,4-c]carbazole] | 8.15 | 8.24 | 1.3 | –
2 | Cn1c2ccc(O)cc2c2c3c(c4c5cc(O)ccc5n(CCC#N)c4c21)C(=O)NC3=O [Example 2f, 12-(2-cyanoethyl)-6,7,12,13-tetrahydro-3,9-dihydroxy-13-methyl-5,7-dioxo-5H-indolo[2,3-a]pyrrolo-[3,4-c]carbazole] | 8.38 | 8.00 | 0.4 | –
3 | CN(C)CCCn1c2ccc(O)cc2c2c3c(c4c5ccccc5n(C)c4c21)C(=O)NC3=O [Example 2g, 13-(3-dimethylaminopropyl)-6,7,12,13-tetrahydro-3-hydroxy-12-methyl-5,7-dioxo-5H-indolo[2,3-a]pyrrolo-25 [3,4-c]carbazole] | 7.40 | 8.30 | 8 | –
4 | Cn1c2ccccc2c2c3c(c4c5ccccc5n(CCC[N+](C)(C)C)c4c21)C(=O)NC3=O [Example 3, 12-(3-Dimethylaminopropyl)-6,7,12,13-tetrahydro-13-methyl-5,7-dioxo-5H-indolo[2,3-a]pyrrolo[3,4-c]-carbazole; methiodide] | 6.72 | 7.12 | 2.5 | –
5 | Cn1c2ccccc2c2c3c(c4c5ccccc5n(CCCN)c4c21)C(=O)NC3=O [Example 4, 12-(3-Aminopropyl)-6,7,12,13-tetrahydro-13-methyl-5,7-dioxo-5H-indolo[2,3-a]pyrrolo[3,4-c]carbazole] | 7.41 | 8.92 | 33 | potent and selective inhibitors of MLC kinase
6 | COc1ccc2c(c1)c1c3c(c4c5ccccc5n(C)c4c1n2CCCN)C(=O)NC3=O [Example 4a, 13-(3-aminopropyl)-6,7,12,13-tetrahydro-3-methoxy-12-methyl-5,7-dioxo-5H-indolo[2,3-a]pyrrolo[3,4-c]-carbazole] | 6.44 | 8.31 | 74 | potent and selective inhibitors of MLC kinase
7 | COc1ccc2c(c1)c1c3c(c4c5cc(Cl)ccc5n(CCCN)c4c1n2C)C(=O)NC3=O [Example 4b, 13-(3-aminopropyl)-3-chloro-6,7,12,13-tetrahydro-9-methoxy-12-methyl-5,7-dioxo-5H-indolo[2,3-a]pyrrolo-[3,4-c]carbazole] | 7.47 | 8.82 | 23 | potent and selective inhibitors of MLC kinase
8 | CC(C)NCCCn1c2ccccc2c2c3c(c4c5ccccc5n(C)c4c21)C(=O)NC3=O [Example 4c, 13-(3-isopropylaminopropyl)-6,7,12,13-tetrahydro-13-methyl-5,7-dioxo-5H-indolo[2,3-a]pyrrolo[3,4-c]-carbazole] | 7.28 | 7.68 | 2.5 | –
9 | COc1ccc2[nH]c3c(c4c(c5c6cc(OC)ccc6n(CCCN(C)C)c35)C(=O)NC4=O)c2c1 [Example 7, 12-(3-Dimethylaminopropyl)-6,7,12,13-tetrahydro-3,9-dimethoxy-5,7-dioxo-5H-indolo[2,3-a]pyrrolo[3,4-c]-carbazole] | 6.42 | 7.40 | 9.5 | –
10 | CN(C)CCCn1c2ccccc2c2c3c(c4c5ccccc5[nH]c4c21)C(=O)NC3=O [Example 7a, 13-(3-dimethylaminopropyl)-6,7,12,13-tetrahydro-5,7-dioxo-5H-indolo[2,3-a]pyrrolo[3,4-c]carbazole] | 6.28 | 7.28 | 10 | –
